The subject of the assay is Aspergillus niger. The assay can be described thus: Inhibition of CYP450-mediated tangeretin demethylation in Aspergillus niger ATCC 9142 assessed as relative activity at 0.5 mM.
Take `Clc1ccc(COC(Cn2ccnc2)c2ccc(Cl)cc2Cl)c(Cl)c1` (centres undefined): the relative activity stood at 10%.

As to `CC1=CC(=O)c2ccccc2C1=O`, the relative activity was 0%.

Take `CC(C)(C(=O)c1cccnc1)c1cccnc1`: the relative activity was found to be 40%.

For the compound `CCCC(C(=O)OCCN(CC)CC)(c1ccccc1)c1ccccc1`, the relative activity is 0%.
